Results from patent publication US10730826B2, “Ketone inhibitors of lysine gingipain” (CORTEXYME, INC., priority 2016, dated 2020).

Assays:
Type in all cases: biochemical
[1] = biological target: cathepsin V (Homo sapiens (Human), UniProt O60911); assay: Cathepsin V inhibition assay; conditions: Table 4; read-out: IC50 (nM) CatV
Protocol: (§1) The capacities of compounds of the present invention to inhibit the activity of cathepsins B, H, K, L, and S were measured in similar assays. Boc-Leu-Arg-Arg-AMC (20 μM) in sodium acetate buffer (50 mM, pH 5.5) containing DTT (1 mM) and EDTA (2 mM) was used for the Cathepsin B assay. L-Arg-AMC (20 μM) in sodium acetate buffer (50 mM, pH 5.5) containing DTT (1 mM) and EDTA (2 mM) was used for the Cathepsin H assay. Z-Phe-Arg-AMC (10 μM) in HEPES buffer (50 mM, pH 7.4) containing DTT (2.5 mM) and EDTA (1 mM) was used for the Cathepsin K assay. Z-Phe-Arg-AMC (20 μM) in sodium acetate buffer (50 mM, pH 5.5) containing DTT (1 mM) and EDTA (2 mM) was used for the Cathepsin L assay. Z-Leu-Arg-AMC (10 μM) in sodium acetate buffer (25 mM, pH 4.5) containing DTT (2.5 mM) and NaCl (50 mM) was used for the Cathepsin S assay. The capacities of the compounds to inhibit the activity of cathepsins F, V, and Z were also measured.
(§2) Further assays to measure the inhibitory activity of compounds of the present invention against Kgp and cathepsins B, H, K, L, and S were conducted as described in Example 66. The capacities of the compounds to inhibit the activity of cathepsins F, V, and Z were also measured.

[2] = biological target: Cathepsin L (Homo sapiens (Human), UniProt P07711); assay: Cathepsin L inhibition assay; conditions: Table 4; read-out: IC50 (nM) CatL
Protocol: as §1, §2

[3] = biological target: Cathepsin B (Homo sapiens (Human), UniProt P07858); assay: Cathepsin B inhibition assay; conditions: Table 4; read-out: IC50 (nM) CatB
Protocol: as §1, §2

cathepsin V, sequence (O60911 114-334): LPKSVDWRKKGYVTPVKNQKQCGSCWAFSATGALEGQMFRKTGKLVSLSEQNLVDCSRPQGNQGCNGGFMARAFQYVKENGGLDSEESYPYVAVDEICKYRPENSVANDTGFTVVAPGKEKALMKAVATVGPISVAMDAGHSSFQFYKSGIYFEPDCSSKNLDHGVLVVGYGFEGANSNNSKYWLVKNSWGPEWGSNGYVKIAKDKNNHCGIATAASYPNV
Cathepsin L, sequence (P07711 114-333, species assumed): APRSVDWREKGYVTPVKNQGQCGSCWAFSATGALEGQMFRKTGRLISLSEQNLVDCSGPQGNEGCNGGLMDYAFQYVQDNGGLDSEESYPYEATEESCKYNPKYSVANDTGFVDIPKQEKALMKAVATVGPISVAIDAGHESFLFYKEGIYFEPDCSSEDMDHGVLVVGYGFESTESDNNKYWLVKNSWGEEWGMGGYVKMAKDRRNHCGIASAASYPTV

## NCCCC[C@H](NC(=O)C1CCCC1)C(=O)COc1c(F)ccc(F)c1F [Compound 1, (S)—N-(7-amino-2-oxo-1-(2,3,6-trifluorophenoxy)heptan-3-yl)cyclopentanecarboxamide]
[1]
  IC50: > 10000 nM
[2]
  IC50: 4680 nM
[3]
  IC50: 380 nM
